The results in this text go back to US20260327225A1, “HETEROCYCLIC COMPOUNDS AS TRIGGERING RECEPTOR EXPRESSED ON MYELOID CELLS 2 AGONISTS AND METHODS OF USE” (VIGIL NEUROSCIENCE, INC., priority 2023, published 2026).

Where only a bound is given, the exact number is not on record here.

This assay addresses T1, human TREM2 (Homo sapiens, UniProt Q9NZC2).
T1 construct: expressed in transfected cells; host or cells: HEK293T-hTREM2 cells (HEK cell line expressing human TREM2 and DAP12)
Kind of assay: TREM2 agonist potency by cellular phosphorylation of Syk (AlphaLisa) in HEK293T-hTREM2 cells expressing human TREM2 and DAP12. It counts as cell-based. The settings on record: HEK293 cells expressing hTREM2 and DAP12; 45 minutes at room temperature; Syk phosphorylation, AlphaLisa; read-out: hTREM2 EC50. Put shortly:
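HEK293T cells co-expressing human TREM2 and DAP12 were exposed to compound in assay buffer for 45 min at room temperature, then lysed. Phospho-Syk measured by AlphaLisa; % activation fitted with a four-parameter agonist curve to give EC50.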
In general terms: In Alpha technology, singlet oxygen from a donor bead excites a nearby acceptor bead.

T1 sequence (Q9NZC2 19-230): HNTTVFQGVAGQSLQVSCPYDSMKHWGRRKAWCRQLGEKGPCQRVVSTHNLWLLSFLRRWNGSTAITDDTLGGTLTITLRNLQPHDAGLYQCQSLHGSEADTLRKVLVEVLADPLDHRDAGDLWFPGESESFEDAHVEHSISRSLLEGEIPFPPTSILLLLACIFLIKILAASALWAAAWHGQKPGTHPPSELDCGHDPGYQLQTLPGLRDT
T1 sequence (O43914 22-113 partner): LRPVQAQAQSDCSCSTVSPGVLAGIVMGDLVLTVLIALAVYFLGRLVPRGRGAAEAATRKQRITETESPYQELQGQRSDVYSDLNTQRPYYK

The EC50 is the concentration that produces a half-maximal response. On to `Cc1nc2c(C34CC(C(F)(F)F)(C3)C4)nc(N3C[C@@H](C)O[C@@H](c4cnn(C5CC5)c4)C3)nc2c(=O)n1C` [Example 127, 6-[(2S,6R)-2-(1-cyclopropylpyrazol-4-yl)-6-methyl-morpholin-4-yl]-2,3-dimethyl-8-[3-(trifluoromethyl)-1-bicyclo[1.1.1]pentanyl]pyrimido[5,4-d]pyrimidin-4-one], for which the EC50 was below 100 nM.
As for `Cc1cc2c(-c3ccc(C(F)(F)F)cc3F)nc([C@H]3CCO[C@@H](c4cnn(C5CC5)c4)C3)nc2c(=O)n1C` [Example 136, 2-[(2R,4S)-2-(1-cyclopropylpyrazol-4-yl)tetrahydropyran-4-yl]-4-[2-fluoro-4-(trifluoromethyl)phenyl]-6,7-dimethyl-pyrido[3,4-d]pyrimidin-8-one], the EC50 is below 100 nM.
With `CC1Cc2c(nc([C@H]3CCO[C@@H](c4cnn(C5CC5)c4)C3)nc2-c2ccc(C(F)(F)F)cc2F)C(=O)N1C` (stereo partly drawn) [Example 138, 2-[(2R,4S)-2-(1-cyclopropylpyrazol-4-yl)tetrahydropyran-4-yl]-4-[2-fluoro-4-(trifluoromethyl)phenyl]-6,7-dimethyl-5,6-dihydropyrido[3,4-d]pyrimidin-8-one formic acid], the EC50 is above 500 nM.
Consider `Cc1nc2nc([C@H]3CCO[C@@H](c4cnn(C5CC5)c4)C3)nc(C34C5C6C7C5C3C7C64)c2nc1C` (stereo partly drawn) [Example 140, 2-((2R,4S)-2-(1-cyclopropyl-1H-pyrazol-4-yl)tetrahydro-2H-pyran-4-yl)-6,7-dimethyl-4-(cuban-1-yl)pteridine], for which the EC50 is below 100 nM.
Take `Cc1nc2nc([C@H]3CCO[C@@H](c4cnn(C5CC5)c4)C3)nc(C34C5C6C3C3C4C5C63C(F)(F)F)c2nc1C` (stereo partly drawn) [Example 143, 2-((2R,4S)-2-(1-cyclopropyl-1H-pyrazol-4-yl)tetrahydro-2H-pyran-4-yl)-6,7-dimethyl-4-(4-(trifluoromethyl)-cuban-1-yl)pteridine]: the 50% effective concentration (EC50) was below 100 nM.
